Measurements: patent publication US20150094474A1, “AGRICULTURAL CHEMICALS” (Redx Pharma Ltd., priority 2012, published 2015)

Tests used:
barley = assay: Herbicidal bioassay, barley (% necrosis); type: in vivo
Procedure, shortened: (§1)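 Scoring of % necrosis followed EPPO guideline PP1/135 at specified growth intervals, five replicates per species and treatment. Plants at the 2-4 true leaf stage received Potter-tower sprays of DMSO-diluted compounds across six levels from 0.0001% to 0.05%, with water and DMSO controls.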

peas = assay: Herbicidal bioassay, peas (% necrosis); type: in vivo
Procedure, shortened: as §1

Question: Which results are given for `COC(=O)c1ccc(CNS(C)(=O)=O)cc1S(=O)(=O)NC(=O)Nc1nc(OC)cc(OC)n1` [Mesosulfuron (6), Mesosulfuron methyl ester, reference compound]?
Answer: Sum of % necrosis in barley (barley; Dose 0.000001, Day 0): C (less than 50% necrosis); Sum of % necrosis in barley (barley; Dose 0.000001, Day 1): C (less than 50% necrosis); Sum of % necrosis in barley (barley; Dose 0.000001, Day 3): C (less than 50% necrosis); Sum of % necrosis in barley (barley; Dose 0.000001, Day 7): C (less than 50% necrosis); Sum of % necrosis in barley (barley; Dose 0.000001, Day 10): C (less than 50% necrosis); Sum of % necrosis in barley (barley; Dose 0.000001, Day 14): C (less than 50% necrosis); Sum of % necrosis in barley (barley; Dose 0.000005, Day 0): C (less than 50% necrosis); Sum of % necrosis in barley (barley; Dose 0.000005, Day 1): C (less than 50% necrosis); Sum of % necrosis in barley (barley; Dose 0.000005, Day 3): C (less than 50% necrosis); Sum of % necrosis in barley (barley; Dose 0.000005, Day 7): C (less than 50% necrosis); Sum of % necrosis in barley (barley; Dose 0.000005, Day 10): C (less than 50% necrosis); Sum of % necrosis in barley (barley; Dose 0.000005, Day 14): C (less than 50% necrosis); Sum of % necrosis in barley (barley; Dose 0.00001, Day 0): C (less than 50% necrosis); Sum of % necrosis in barley (barley; Dose 0.00001, Day 1): C (less than 50% necrosis); Sum of % necrosis in barley (barley; Dose 0.00001, Day 3): C (less than 50% necrosis); Sum of % necrosis in barley (barley; Dose 0.00001, Day 7): C (less than 50% necrosis); Sum of % necrosis in barley (barley; Dose 0.00001, Day 10): C (less than 50% necrosis); Sum of % necrosis in barley (barley; Dose 0.00001, Day 14): C (less than 50% necrosis); Sum of % necrosis in barley (barley; Dose 0.00005, Day 0): C (less than 50% necrosis); Sum of % necrosis in barley (barley; Dose 0.00005, Day 1): C (less than 50% necrosis); Sum of % necrosis in barley (barley; Dose 0.00005, Day 3): C (less than 50% necrosis); Sum of % necrosis in barley (barley; Dose 0.00005, Day 7): C (less than 50% necrosis); Sum of % necrosis in barley (barley; Dose 0.00005, Day 10): C (less than 50% necrosis); Sum of % necrosis in barley (barley; Dose 0.00005, Day 14): C (less than 50% necrosis); Sum of % necrosis in barley (barley; Dose 0.0001, Day 0): C (less than 50% necrosis); Sum of % necrosis in barley (barley; Dose 0.0001, Day 1): C (less than 50% necrosis); Sum of % necrosis in barley (barley; Dose 0.0001, Day 3): C (less than 50% necrosis); Sum of % necrosis in barley (barley; Dose 0.0001, Day 7): C (less than 50% necrosis); Sum of % necrosis in barley (barley; Dose 0.0001, Day 10): B (50%-80% necrosis); Sum of % necrosis in barley (barley; Dose 0.0001, Day 14): B (50%-80% necrosis); Sum of % necrosis in barley (barley; Dose 0.0005, Day 0): C (less than 50% necrosis); Sum of % necrosis in barley (barley; Dose 0.0005, Day 1): C (less than 50% necrosis); Sum of % necrosis in barley (barley; Dose 0.0005, Day 3): C (less than 50% necrosis); Sum of % necrosis in barley (barley; Dose 0.0005, Day 7): C (less than 50% necrosis); Sum of % necrosis in barley (barley; Dose 0.0005, Day 10): B (50%-80% necrosis); Sum of % necrosis in barley (barley; Dose 0.0005, Day 14): B (50%-80% necrosis); Sum of % necrosis in Pea (peas; Dose 0.000001, Day 0): C (less than 50% necrosis); Sum of % necrosis in Pea (peas; Dose 0.000001, Day 1): C (less than 50% necrosis); Sum of % necrosis in Pea (peas; Dose 0.000001, Day 3): A (over 80% necrosis); Sum of % necrosis in Pea (peas; Dose 0.000001, Day 7): A (over 80% necrosis); Sum of % necrosis in Pea (peas; Dose 0.000001, Day 10): A (over 80% necrosis); Sum of % necrosis in Pea (peas; Dose 0.000001, Day 14): A (over 80% necrosis); Sum of % necrosis in Pea (peas; Dose 0.000005, Day 0): C (less than 50% necrosis); Sum of % necrosis in Pea (peas; Dose 0.000005, Day 1): C (less than 50% necrosis); Sum of % necrosis in Pea (peas; Dose 0.000005, Day 3): B (50%-80% necrosis); Sum of % necrosis in Pea (peas; Dose 0.000005, Day 7): A (over 80% necrosis); Sum of % necrosis in Pea (peas; Dose 0.000005, Day 10): A (over 80% necrosis); Sum of % necrosis in Pea (peas; Dose 0.000005, Day 14): A (over 80% necrosis); Sum of % necrosis in Pea (peas; Dose 0.00001, Day 0): C (less than 50% necrosis); Sum of % necrosis in Pea (peas; Dose 0.00001, Day 1): C (less than 50% necrosis); Sum of % necrosis in Pea (peas; Dose 0.00001, Day 3): A (over 80% necrosis); Sum of % necrosis in Pea (peas; Dose 0.00001, Day 7): A (over 80% necrosis); Sum of % necrosis in Pea (peas; Dose 0.00001, Day 10): A (over 80% necrosis); Sum of % necrosis in Pea (peas; Dose 0.00001, Day 14): A (over 80% necrosis); Sum of % necrosis in Pea (peas; Dose 0.00005, Day 0): C (less than 50% necrosis); Sum of % necrosis in Pea (peas; Dose 0.00005, Day 1): C (less than 50% necrosis); Sum of % necrosis in Pea (peas; Dose 0.00005, Day 3): B (50%-80% necrosis); Sum of % necrosis in Pea (peas; Dose 0.00005, Day 7): A (over 80% necrosis); Sum of % necrosis in Pea (peas; Dose 0.00005, Day 10): A (over 80% necrosis); Sum of % necrosis in Pea (peas; Dose 0.00005, Day 14): A (over 80% necrosis); Sum of % necrosis in Pea (peas; Dose 0.0001, Day 0): C (less than 50% necrosis); Sum of % necrosis in Pea (peas; Dose 0.0001, Day 1): C (less than 50% necrosis); Sum of % necrosis in Pea (peas; Dose 0.0001, Day 3): A (over 80% necrosis); Sum of % necrosis in Pea (peas; Dose 0.0001, Day 7): A (over 80% necrosis); Sum of % necrosis in Pea (peas; Dose 0.0001, Day 10): A (over 80% necrosis); Sum of % necrosis in Pea (peas; Dose 0.0001, Day 14): A (over 80% necrosis); Sum of % necrosis in Pea (peas; Dose 0.0005, Day 0): C (less than 50% necrosis); Sum of % necrosis in Pea (peas; Dose 0.0005, Day 1): C (less than 50% necrosis); Sum of % necrosis in Pea (peas; Dose 0.0005, Day 3): C (less than 50% necrosis); Sum of % necrosis in Pea (peas; Dose 0.0005, Day 7): A (over 80% necrosis); Sum of % necrosis in Pea (peas; Dose 0.0005, Day 10): A (over 80% necrosis); Sum of % necrosis in Pea (peas; Dose 0.0005, Day 14): A (over 80% necrosis)
